Tested on: 817829-284-R-J1-PDC complex spheroids, viability
Assay: Anticancer human tumor 817829-284-R-J1-PDC patient-derived colon adenocarcinoma cell line growth inhibition [CLK]
Settings: for IC50: curve of first compound; for viability, T/C: stronger effect = lower value; active = viability on the fitted dose curve at most 10% of control; inactive = the rest
Procedure, shortened: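 Patient-derived tumor cells grown as complex spheroids with HUVEC endothelial cells and mesenchymal stem cells, treated with drug combinations. Concentrations descend in half-log steps from near clinical Cmax, or from 10 microM if Cmax unknown.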

[1] = second compound 0.0316 µM, first compound 0.0316 µM
[2] = second compound 0.0316 µM, first compound 0.1 µM
[3] = second compound 0.0316 µM, first compound 0.316 µM
[4] = second compound 0.0316 µM, first compound 1 µM
[5] = second compound 0.1 µM, first compound 0.0316 µM
[6] = second compound 0.1 µM, first compound 0.1 µM
[7] = second compound 0.1 µM, first compound 0.316 µM
[8] = second compound 0.1 µM, first compound 1 µM
[9] = second compound 0.316 µM, first compound 0.0316 µM
[10] = second compound 0.316 µM, first compound 0.1 µM
[11] = second compound 0.316 µM, first compound 0.316 µM
[12] = second compound 0.316 µM, first compound 1 µM
[13] = second compound 1 µM, first compound 0.0316 µM
[14] = second compound 1 µM, first compound 0.1 µM
[15] = second compound 1 µM, first compound 0.316 µM
[16] = second compound 1 µM, first compound 1 µM
[17] = second compound 3.16 µM, first compound 0.0316 µM
[18] = second compound 3.16 µM, first compound 0.1 µM
[19] = second compound 3.16 µM, first compound 0.316 µM
[20] = second compound 3.16 µM, first compound 1 µM
[21] = second compound 10 µM, first compound 0.0316 µM
[22] = second compound 10 µM, first compound 0.1 µM
[23] = second compound 10 µM, first compound 0.316 µM
[24] = second compound 10 µM, first compound 1 µM
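Also: spheroids exposed to the agents for seven days before readout.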

COc1c(OCCCN2CCOCC2)ccc2c3n(c(=NC(=O)c4cnc(N)nc4)nc12)CCN3 + CN1CCN(c2cc(C(=O)Nc3cc4cc(-c5cnn(C)c5)ccc4cn3)ccn2)CC1
inactive: viability, T/C (second compound 0.0316 µM, first compound 0.00316 µM) 52.3% | viability, T/C (second compound 0.0316 µM, first compound 0.01 µM) 51.3% | viability, T/C [1] 33.9% | viability, T/C [2] 13.7% | viability, T/C (second compound 0.1 µM, first compound 0.00316 µM) 20.9% | viability, T/C (second compound 0.1 µM, first compound 0.01 µM) 17.7% | viability, T/C [5] 11.5%
< 3.16 nM: IC50 (second compound 0.1 µM) | IC50 (second compound 0.316 µM) | IC50 (second compound 1 µM) | IC50 (second compound 3.16 µM) | IC50 (second compound 10 µM)
active: viability, T/C [3] 3.82% | viability, T/C [4] 1.54% | viability, T/C [6] 6.91% | viability, T/C [7] 1.95% | viability, T/C [8] 1.19% | viability, T/C (second compound 0.316 µM, first compound 0.00316 µM) 1.52% | viability, T/C (second compound 0.316 µM, first compound 0.01 µM) 1.2% | viability, T/C [9] 0.85% | viability, T/C [10] 0.73% | viability, T/C [11] 0.56% | viability, T/C [12] 0.47% | viability, T/C (second compound 1 µM, first compound 0.00316 µM) 0.08% | viability, T/C (second compound 1 µM, first compound 0.01 µM) 0.11% | viability, T/C [13] 0.12% | viability, T/C [14] 0.12% | viability, T/C [15] 0.11% | viability, T/C [16] 0.34% | viability, T/C (second compound 3.16 µM, first compound 0.00316 µM) 0.17% | viability, T/C (second compound 3.16 µM, first compound 0.01 µM) 0.13% | viability, T/C [17] 0.13% | viability, T/C [18] 0.09% | viability, T/C [19] 0.17% | viability, T/C [20] 0.17% | viability, T/C (second compound 10 µM, first compound 0.00316 µM) 0.03% | viability, T/C (second compound 10 µM, first compound 0.01 µM) 0.06% | viability, T/C [21] 0.1% | viability, T/C [22] 0.56% | viability, T/C [23] 0.13% | viability, T/C [24] 0.12%
8.9 nM: IC50 (second compound 0.0316 µM)

O=c1[nH]cc(F)c(=O)[nH]1 + CN1CCN(c2cc(C(=O)Nc3cc4cc(-c5cnn(C)c5)ccc4cn3)ccn2)CC1
851 nM: IC50 (second compound 0.0316 µM)
active: viability, T/C [9] 2.25% | viability, T/C [10] 2.52% | viability, T/C [11] 1.94% | viability, T/C [12] 2.49% | viability, T/C (second compound 0.316 µM, first compound 3.16 µM) 2.36% | viability, T/C (second compound 0.316 µM, first compound 10 µM) 2.06% | viability, T/C [13] 0.14% | viability, T/C [14] 0.12% | viability, T/C [15] 0.18% | viability, T/C [16] 0.07% | viability, T/C (second compound 1 µM, first compound 3.16 µM) 0.07% | viability, T/C (second compound 1 µM, first compound 10 µM) 0.05% | viability, T/C [17] 0.14% | viability, T/C [18] 0.11% | viability, T/C [19] 0.11% | viability, T/C [20] 0.1% | viability, T/C (second compound 3.16 µM, first compound 3.16 µM) 0.15% | viability, T/C (second compound 3.16 µM, first compound 10 µM) 0.14% | viability, T/C [21] 0.07% | viability, T/C [22] 0.08% | viability, T/C [23] 0.1% | viability, T/C [24] 0.11% | viability, T/C (second compound 10 µM, first compound 3.16 µM) 0.13% | viability, T/C (second compound 10 µM, first compound 10 µM) 0.08%
< 31.6 nM: IC50 (second compound 0.1 µM) | IC50 (second compound 0.316 µM) | IC50 (second compound 1 µM) | IC50 (second compound 3.16 µM) | IC50 (second compound 10 µM)
inactive: viability, T/C [1] 72.7% | viability, T/C [2] 66.3% | viability, T/C [3] 57.1% | viability, T/C [4] 52.4% | viability, T/C (second compound 0.0316 µM, first compound 3.16 µM) 33.8% | viability, T/C (second compound 0.0316 µM, first compound 10 µM) 26.3% | viability, T/C [5] 18.2% | viability, T/C [6] 17.6% | viability, T/C [7] 22.3% | viability, T/C [8] 20.8% | viability, T/C (second compound 0.1 µM, first compound 3.16 µM) 18.9% | viability, T/C (second compound 0.1 µM, first compound 10 µM) 15.9%
